Test results taken from US8232305B2, “Anti-microbial compositions” (BASF SE, priority 2006, dated 2012).

What was measured:
cocci, rods and fungi = details: Pernak et al., 226th ACS National Meeting 2003; cited from earlier work
Escherichia coli = test: Microbicidal activity according to EN1040; assay type: cell-based; details: 1000 ppm, room temperature, vs growth control in water
Protocol: (§1) A bacterial suspension with a cell count of about 10^7 cfu/ml is contacted with appropriate concentrations of the specific substances and the residual cell count determined after incubation times of 5 and 30 minutes at room temperature under continuous stirring. Staphylococcus aureus was tested as gram+ and Escherichia coli as gram− organism. The results are given as a log reduction in comparison to a growth control in water.

Staphylococcus aureus = test: Microbicidal activity according to EN1040; assay type: cell-based; details: 1000 ppm, room temperature, vs growth control in water
Protocol: as §1

Aureobasidium pullulans = test: Fungicidal activity according to EN12175; assay type: cell-based; details: spores about 10^6 cfu/ml, vs water control
Protocol: (§2) Fungicidal activity is tested according to EN12175. A fungal spore suspension with a spore cell count of about 10^6 cfu/ml is contacted with appropriate concentrations of the specific substances and the residual spore cell count determined after incubation times of 30 and 60 minutes at room temperature under continuous stirring. Penicillium funiculosum, Aspergillus niger and Aureobasidium pullulans are tested as important mold strains. The results are given as a log reduction at each incubation time in comparison to a water control.

Penicillium funiculosum = test: Fungicidal activity according to EN12175; assay type: cell-based; details: spores about 10^6 cfu/ml, vs water control
Protocol: as §2

Aspergillus niger = test: Fungicidal activity according to EN12175; assay type: cell-based; details: spores about 10^6 cfu/ml, vs water control
Protocol: as §2

A. niger = test: Preservative challenge test in cosmetic emulsions (EurPh and USP); assay type: cell-based; details: 0.5% w/w
Protocol: (§3) A preservative challenge test is conducted for representative cosmetic formulations according to the conditions of the EurPh and USP. The compound concentration in the formulations is 0.5% w/w. The Inoculum concentration of the five different strains is 2.1-4.2×10^5 cfu/ml, incubation time according to EurPh. 2, 7, 14 and 28 days. Preservation is investigated in two different emulsion types, w/o and o/w.

E. coli = test: as above; assay type: cell-based; details: 0.5% w/w
Protocol: as §3

C. albicans = test: as above; assay type: cell-based; details: 0.5% w/w
Protocol: as §3

S. aureus = test: as above; assay type: cell-based; details: 0.5% w/w
Protocol: as §3

P. aerug. = test: as above; assay type: cell-based; details: 0.5% w/w
Protocol: as §3

A. niger ATCC 16404 = test: Microbicidal activity under conditions similar to a preservative challenge test; assay type: cell-based; details: 0.5%, inoculum 10^5 cfu/ml
Protocol: as §1
(§4) The test procedure of Example 7 is used, with an inoculum concentration of 10^5 cfu/ml and incubation times of 48 and 72 hours; figures given as log reduction.

S. aureus ATCC 6538 = test: as above; assay type: cell-based; details: 0.5%, inoculum 10^5 cfu/ml
Protocol: as §1, §4

E. coli ATCC 10536 = test: as above; assay type: cell-based; details: 0.5%, inoculum 10^5 cfu/ml
Protocol: as §1, §4

C. albicans ATCC 10231 = test: as above; assay type: cell-based; details: 0.5%, inoculum 10^5 cfu/ml
Protocol: as §1, §4

P. aeruginosa ATCC 15442 = test: as above; assay type: cell-based; details: 0.5%, inoculum 10^5 cfu/ml
Protocol: as §1, §4

[1] = Formulation of stable w/o or o/w emulsions; assay type: physicochemical; details: comparable concentrations (0.5% w/w) in the w/o and o/w emulsions of Example 10

For `CCCCCCCCOC[n+]1ccn(C)c1.F[B-](F)(F)F` [1-methyl-3-octyloxymethylimidazolium tetrafluoroborate], the “effectiveness against cocci, rods and fungi” value (cocci, rods and fungi) is given as “the most effective of the ionic liquids tested”.

With `CCCCCCCCCCCCOC(=O)C[n+]1ccn(C)c1.[Br-]` [Ex 4] the “log reduction E. coli 5 min.” value (Escherichia coli; 5 min) was over 5 log, the “log reduction E. coli 30 min.” value (Escherichia coli; 30 min) was over 5 log and the “log reduction S. aureus 5 min.” value (Staphylococcus aureus; 5 min) was over 5 log. For the same molecule, the “log reduction S. aureus 30 min.” value (Staphylococcus aureus; 30 min) was over 5 log, the “log reduction A. pullulans 30 min” value (Aureobasidium pullulans; 1%, 30 min) was over 4 log and the “log reduction A. pullulans 1 h” value (Aureobasidium pullulans; 1 h) was over 4 log. For the same molecule, the “log reduction P. funiculosum 30 min” value (Penicillium funiculosum; 1%, 30 min) was under 1 log, the “log reduction P. funiculosum 1 h” value (Penicillium funiculosum; 1 h) was 1.9 log and the “log reduction A. niger 30 min” value (Aspergillus niger; 1%, 30 min) was 2.1 log. The “log reduction A. niger 1 h” value (Aspergillus niger; 1 h) was over 4 log, the “Log Reduction A. niger” value (A. niger; O/W emulsion, 2 days) was 0 log and the “Log Reduction A. niger” value (A. niger; O/W emulsion, 7 days) was 0 log. For the same molecule, the “Log Reduction A. niger” value (A. niger; O/W emulsion, 14 days) was 0 log, the “Log Reduction A. niger” value (A. niger; O/W emulsion, 28 days) was 0 log and the “Log Reduction A. niger” value (A. niger; W/O emulsion, 2 days) was 0 log. The “Log Reduction A. niger” value (A. niger; W/O emulsion, 7 days) was 1 log, the “Log Reduction A. niger” value (A. niger; W/O emulsion, 14 days) was 2 log and the “Log Reduction A. niger” value (A. niger; W/O emulsion, 28 days) was 2 log. The “Log Reduction E. coli” value (E. coli; O/W emulsion, 2 days) was 1 log, the “Log Reduction E. coli” value (E. coli; O/W emulsion, 7 days) was 1 log and the “Log Reduction E. coli” value (E. coli; O/W emulsion, 14 days) was 2 log. The “Log Reduction E. coli” value (E. coli; O/W emulsion, 28 days) was “≧4 log”, the “Log Reduction E. coli” value (E. coli; W/O emulsion, 2 days) was 6 log and the “Log Reduction E. coli” value (E. coli; W/O emulsion, 7 days) was 6 log. For the same molecule, the “Log Reduction E. coli” value (E. coli; W/O emulsion, 14 days) was 6 log, the “Log Reduction E. coli” value (E. coli; W/O emulsion, 28 days) was 6 log and the “Log Reduction C. albicans” value (C. albicans; O/W emulsion, 2 days) was 0 log. The “Log Reduction C. albicans” value (C. albicans; O/W emulsion, 7 days) was 0 log, the “Log Reduction C. albicans” value (C. albicans; O/W emulsion, 14 days) was 0 log and the “Log Reduction C. albicans” value (C. albicans; O/W emulsion, 28 days) was 0 log. The “Log Reduction C. albicans” value (C. albicans; W/O emulsion, 2 days) was 2 log, the “Log Reduction C. albicans” value (C. albicans; W/O emulsion, 7 days) was 3 log and the “Log Reduction C. albicans” value (C. albicans; W/O emulsion, 14 days) was 3 log. For the same molecule, the “Log Reduction C. albicans” value (C. albicans; W/O emulsion, 28 days) was 5 log, the “Log Reduction S. aureus” value (S. aureus; O/W emulsion, 2 days) was 4 log and the “Log Reduction S. aureus” value (S. aureus; O/W emulsion, 7 days) was 6 log. The “Log Reduction S. aureus” value (S. aureus; O/W emulsion, 14 days) was 6 log, the “Log Reduction S. aureus” value (S. aureus; O/W emulsion, 28 days) was 6 log and the “Log Reduction S. aureus” value (S. aureus; W/O emulsion, 2 days) was 6 log. The “Log Reduction S. aureus” value (S. aureus; W/O emulsion, 7 days) was 6 log, the “Log Reduction S. aureus” value (S. aureus; W/O emulsion, 14 days) was 6 log and the “Log Reduction S. aureus” value (S. aureus; W/O emulsion, 28 days) was 6 log. The “Log Reduction P. aerug.” value (P. aerug.; O/W emulsion, 2 days) was “≧4 log”, the “Log Reduction P. aerug.” value (P. aerug.; O/W emulsion, 7 days) was 5 log and the “Log Reduction P. aerug.” value (P. aerug.; O/W emulsion, 14 days) was 5 log. For the same molecule, the “Log Reduction P. aerug.” value (P. aerug.; O/W emulsion, 28 days) was 5 log, the “Log Reduction P. aerug.” value (P. aerug.; W/O emulsion, 2 days) was 5 log and the “Log Reduction P. aerug.” value (P. aerug.; W/O emulsion, 7 days) was 5 log. The “Log Reduction P. aerug.” value (P. aerug.; W/O emulsion, 14 days) was 5 log, the “Log Reduction P. aerug.” value (P. aerug.; W/O emulsion, 28 days) was 5 log and the “log reduction A. niger ATCC 16404 48 h” value (A. niger ATCC 16404; 48 h) was 1.8 log. For the same molecule, the “log reduction A. niger ATCC 16404 72 h” value (A. niger ATCC 16404; 72 h) was 2.3 log, the “log reduction S. aureus ATCC 6538 48 h” value (S. aureus ATCC 6538; 48 h) was over 3 log and the “log reduction S. aureus ATCC 6538 72 h” value (S. aureus ATCC 6538; 72 h) was over 3 log. The “log reduction E. coli ATCC 10536 48 h” value (E. coli ATCC 10536; 48 h) was over 3 log, the “log reduction E. coli ATCC 10536 72 h” value (E. coli ATCC 10536; 72 h) was over 3 log and the “log reduction C. albicans ATCC 10231 48 h” value (C. albicans ATCC 10231; 48 h) was over 3 log. For the same molecule, the “log reduction C. albicans ATCC 10231 72 h” value (C. albicans ATCC 10231; 72 h) was over 3 log, the “log reduction P. aeruginosa ATCC 15442 48 h” value (P. aeruginosa ATCC 15442; 48 h) was over 3 log and the “log reduction P. aeruginosa ATCC 15442 72 h” value (P. aeruginosa ATCC 15442; 72 h) was over 3 log.

With benzalkonium chloride the “stability of w/o or o/w emulsions formulated with the agent” value [1] was “No stable w/o or o/w emulsions could be formulated”.
